Results on 45 compounds are retold here after patent US20250332178A1, “METHODS OF TREATING MYCOBACTERIAL INFECTIONS USING TETRACYCLINE COMPOUNDS” (priority 2018, published 2025).

≈ marks a conversion by molar mass, not a printed value.

One assay relates to H37Rv strain of Mycobacterium tuberculosis. Put plainly: MIC against H37Rv strain. Type of assay: cell-based. Particulars: Mycobacterium tuberculosis, H37RV. On the procedure:
The purpose of this study was to test activity of selected tetracycline compounds against the H37Rv strain of Mycobacterium tuberculosis. Minimum inhibitory concentrations (MIC) of different tetracycline compounds against H37Rv strain were determined and are shown in Table 8.
In the case of `Cc1ccc(OC(=O)NCc2cc(N(C)C)c3c(c2O)C(=O)C2=C(O)[C@]4(O)C(=O)C(C(N)=O)=C(O)[C@@H](N(C)C)[C@@H]4C[C@@H]2C3)cc1` [Compound 20], the MIC (usually the lowest concentration that inhibits growth of the organism) was > 32 µg/mL. The same measure, in the same setting: then `CN(C)c1cc(CNC(=O)Oc2ccc(Br)cc2)c(O)c2c1C[C@H]1C[C@H]3[C@H](N(C)C)C(O)=C(C(N)=O)C(=O)[C@@]3(O)C(O)=C1C2=O` [Compound 21], with 16 µg/mL (≈ 23.3 µM).

Still in this assay, the particulars now being: Mycobacterium tuberculosis, H37RV; read-out: MIC.
Turning to `CC(C)CNCc1cc(N(C)C)c2c(c1O)C(=O)C1=C(O)[C@]3(O)C(=O)C(C(N)=O)=C(O)C(N(C)C)[C@@H]3C[C@@H]1C2` (stereo partly drawn) [Compound 45], the MIC was determined as 32 µg/mL (≈ 59 µM). In the case of `CCCCCCOC(=O)NCc1cc(N(C)C)c2c(c1O)C(=O)C1=C(O)[C@]3(O)C(=O)C(C(N)=O)=C(O)[C@@H](N(C)C)[C@@H]3C[C@@H]1C2` [Compound 18], the MIC was > 32 µg/mL. The same measure, in the same setting: under `CN(C)c1ccc(-c2cc(CN)c(O)c3c2C[C@H]2C[C@H]4[C@@H](N(C)C)C(O)=C(C(N)=O)C(=O)[C@@]4(O)C(O)=C2C3=O)cc1` [Compound 28] stands > 32 µg/mL.

In the case of `CN(C)c1cc(CNCc2ccc(C#N)cc2)c(O)c2c1C[C@H]1C[C@H]3C(N(C)C)C(O)=C(C(N)=O)C(=O)[C@@]3(O)C(O)=C1C2=O` (stereo partly drawn) [Compound 78], the MIC was determined as 32 µg/mL (≈ 53.2 µM).

In the case of `CN(C)c1cc(CN2CCOCC2)c(O)c2c1C[C@H]1C[C@H]3[C@H](N(C)C)C(O)=C(C(N)=O)C(=O)[C@@]3(O)C(O)=C1C2=O` [Compound 80], the minimal inhibitory concentration (MIC) was 16 µg/mL (≈ 28.7 µM). The same measure, in the same setting: then `CN1CCC(NCc2cc(N(C)C)c3c(c2O)C(=O)C2=C(O)[C@]4(O)C(=O)C(C(N)=O)=C(O)[C@@H](N(C)C)[C@@H]4C[C@@H]2C3)CC1` [Compound 47], with > 32 µg/mL; and `CN(C)[C@H]1C(O)=C(C(N)=O)C(=O)[C@@]2(O)C(O)=C3C(=O)c4c(O)c(CN)cc(-c5ccccc5)c4C[C@H]3C[C@@H]12` [Compound 32], with > 32 µg/mL. `CN(C)c1cc(CNCC2CC2)c(O)c2c1C[C@H]1C[C@H]3[C@H](N(C)C)C(O)=C(C(N)=O)C(=O)[C@@]3(O)C(O)=C1C2=O` [Compound 65]: the MIC was determined as 16 µg/mL (≈ 29.6 µM). `CN(C)C1C(O)=C(C(N)=O)C(=O)[C@@]2(O)C(O)=C3C(=O)c4c(O)c(CNCC(C)(C)C)cc(CNCC(C)(C)C)c4C[C@H]3C[C@@H]12` (stereo partly drawn) [Compound 64]: the MIC worked out at 32 µg/mL (≈ 52.2 µM). Still for that read-out and setting: then `CCNCC(=O)NCc1cc(N(C)C)c2c(c1O)C(=O)C1=C(O)[C@]3(O)C(=O)C(C(N)=O)=C(O)[C@H](N(C)C)[C@@H]3C[C@@H]1C2` [Compound 46], with 32 µg/mL (≈ 56 µM); and `CC(CC(F)(F)F)NCc1cc(N(C)C)c2c(c1O)C(=O)C1=C(O)[C@]3(O)C(=O)C(C(N)=O)=C(O)[C@@H](N(C)C)[C@@H]3C[C@@H]1C2` (stereo partly drawn) [Compound 81], with 32 µg/mL (≈ 53.6 µM); and `CN(C)c1cc(CNCC(C)(C)C)c(O)c2c1C[C@H]1C[C@H]3C(N(C)C)C(O)=C(C(N)=O)C(=O)[C@@]3(O)C(O)=C1C2=O` (stereo partly drawn) [Compound 29], with 32 µg/mL (≈ 57.5 µM).

In the case of `CN(C)c1cc(CNCC2CCSCC2)c(O)c2c1C[C@H]1C[C@H]3C(N(C)C)C(O)=C(C(N)=O)C(=O)[C@@]3(O)C(O)=C1C2=O` (stereo partly drawn) [Compound 50], the MIC was > 32 µg/mL. The same measure, in the same setting: then `CN(C)c1cc(CNc2nc(-c3ccc(F)cc3)cs2)c(O)c2c1C[C@H]1C[C@H]3C(N(C)C)C(O)=C(C(N)=O)C(=O)[C@@]3(O)C(O)=C1C2=O` (stereo partly drawn) [Compound 75], with > 32 µg/mL; and `CN(C)c1cc(CNCc2cc(F)c(F)c(F)c2)c(O)c2c1C[C@H]1C[C@H]3C(N(C)C)C(O)=C(C(N)=O)C(=O)[C@@]3(O)C(O)=C1C2=O` (stereo partly drawn) [Compound 77], with > 32 µg/mL.

On to `CC(=O)c1ccc(NC(=O)NCc2cc(N(C)C)c3c(c2O)C(=O)C2=C(O)[C@]4(O)C(=O)C(C(N)=O)=C(O)[C@@H](N(C)C)[C@@H]4C[C@@H]2C3)cc1` [Compound 25], for which the MIC was > 32 µg/mL. Still for that read-out and setting: then `CN(C)[C@@H]1C(O)=C(C(N)=O)C(=O)[C@@]2(O)C(O)=C3C(=O)c4c(ccc(CNCC(C)(C)C)c4O)C[C@H]3C[C@@H]12` [Compound 68], with > 32 µg/mL; and `CN(C)c1cc(CNC(=O)c2ccno2)c(O)c2c1C[C@H]1C[C@H]3C(N(C)C)C(O)=C(C(N)=O)C(=O)[C@@]3(O)C(O)=C1C2=O` (stereo partly drawn) [Compound 52], with 16 µg/mL (≈ 27.5 µM).

Turning to `CN(C)c1cc(CNCC2CCNCC2)c(O)c2c1C[C@H]1C[C@H]3[C@@H](N(C)C)C(O)=C(C(N)=O)C(=O)[C@@]3(O)C(O)=C1C2=O` [Compound 49], the minimum inhibitory concentration (MIC) was > 32 µg/mL. For the compound `CN(C)c1cc(CNc2nc(C(F)(F)F)cs2)c(O)c2c1C[C@H]1C[C@H]3C(N(C)C)C(O)=C(C(N)=O)C(=O)[C@@]3(O)C(O)=C1C2=O` (stereo partly drawn) [Compound 76], the MIC was > 32 µg/mL.

For the compound `CN(C)c1cc(CNC(=O)C(Cc2ccccc2)N(C)C)c(O)c2c1C[C@H]1C[C@H]3[C@@H](N(C)C)C(O)=C(C(N)=O)C(=O)[C@@]3(O)C(O)=C1C2=O` (stereo partly drawn) [Compound 48], the minimal inhibitory concentration (MIC) is > 32 µg/mL.

On to `CN(C)c1cc(CNCc2cccn2C)c(O)c2c1C[C@H]1C[C@H]3[C@H](N(C)C)C(O)=C(C(N)=O)C(=O)[C@@]3(O)C(O)=C1C2=O` [Compound 38], for which the MIC was > 32 µg/mL. Still for that read-out and setting: then `CN(C)c1cc(CNC(=O)Nc2ccc(OC(F)(F)F)cc2)c(O)c2c1C[C@H]1C[C@H]3[C@H](N(C)C)C(O)=C(C(N)=O)C(=O)[C@@]3(O)C(O)=C1C2=O` [Compound 27], with 8 µg/mL (≈ 11.6 µM); and `CCOC(=O)c1csc(NCc2cc(N(C)C)c3c(c2O)C(=O)C2=C(O)[C@]4(O)C(=O)C(C(N)=O)=C(O)C(N(C)C)[C@@H]4C[C@@H]2C3)n1` (stereo partly drawn) [Compound 63], with > 32 µg/mL. As to `Cc1cc(CNCc2cc(N(C)C)c3c(c2O)C(=O)C2=C(O)[C@]4(O)C(=O)C(C(N)=O)=C(O)[C@@H](N(C)C)[C@@H]4C[C@@H]2C3)oc1C` [Compound 41], the MIC was > 32 µg/mL.

Turning to `CN(C)c1ccc(NC(=O)NCc2cc(N(C)C)c3c(c2O)C(=O)C2=C(O)[C@]4(O)C(=O)C(C(N)=O)=C(O)[C@@H](N(C)C)[C@@H]4C[C@@H]2C3)cc1` [Compound 26], the MIC amounted to 32 µg/mL (≈ 49.3 µM). With `CN(C)c1cc(CNCc2ccccc2)c(O)c2c1C[C@H]1C[C@H]3[C@H](N(C)C)C(O)=C(C(N)=O)C(=O)[C@@]3(O)C(O)=C1C2=O` [Compound 66], the MIC is > 32 µg/mL. On to `CN(C)c1cc(CNCc2cc[n+]([O-])cc2)c(O)c2c1C[C@H]1C[C@H]3[C@H](N(C)C)C(O)=C(C(N)=O)C(=O)[C@@]3(O)C(O)=C1C2=O` [Compound 54], for which the MIC came out at 32 µg/mL (≈ 53.9 µM). For the compound `CN(C)c1cc(CNc2ccccc2)c(O)c2c1C[C@H]1C[C@H]3[C@H](N(C)C)C(O)=C(C(N)=O)C(=O)[C@@]3(O)C(O)=C1C2=O` [Compound 82], the MIC was > 32 µg/mL.

Consider `CC(C)NCc1cc(N(C)C)c2c(c1O)C(=O)C1=C(O)[C@]3(O)C(=O)C(C(N)=O)=C(O)[C@H](N(C)C)[C@@H]3C[C@@H]1C2` [Compound 39], for which the MIC is > 32 µg/mL.

As to `CN(C)c1cc(CNC(=O)Nc2ccc3c(c2)OCO3)c(O)c2c1C[C@H]1C[C@H]3[C@H](N(C)C)C(O)=C(C(N)=O)C(=O)[C@@]3(O)C(O)=C1C2=O` [Compound 24], the MIC is > 32 µg/mL. As for `CC(N)CNCc1cc(N(C)C)c2c(c1O)C(=O)C1=C(O)[C@]3(O)C(=O)C(C(N)=O)=C(O)C(N(C)C)[C@@H]3C[C@@H]1C2` (stereo partly drawn) [Compound 51], the MIC is > 32 µg/mL. The same measure, in the same setting: then `CCc1cc(CNCC(C)C)c(O)c2c1C[C@H]1C[C@H]3[C@H](N(C)C)C(O)=C(C(N)=O)C(=O)[C@@]3(O)C(O)=C1C2=O` [Compound 30], with > 32 µg/mL. Regarding `CN(C)c1cc(Cn2ccc(C=O)c2)c(O)c2c1C[C@H]1C[C@H]3[C@H](N(C)C)C(O)=C(C(N)=O)C(=O)[C@@]3(O)C(O)=C1C2=O` [Compound 69], the MIC was > 32 µg/mL.

As for `CN(C)[C@H]1C(O)=C(C(N)=O)C(=O)[C@@]2(O)C(O)=C3C(=O)c4c(O)c(CNCC(C)(C)C)cc(-c5ccoc5)c4C[C@H]3C[C@@H]12` [Compound 73], the MIC was > 32 µg/mL. The same measure, in the same setting: then `C[C@H]1c2ccc(CNCCc3ccccc3)c(O)c2C(=O)C2=C(O)[C@]3(O)C(=O)C(C(N)=O)=C(O)[C@@H](N(C)C)[C@@H]3[C@@H](O)[C@@H]21` [Compound 35], with > 32 µg/mL; and `CN(C)c1cc(CNCC2CCCCC2)c(O)c2c1C[C@H]1C[C@H]3[C@H](N(C)C)C(O)=C(C(N)=O)C(=O)[C@@]3(O)C(O)=C1C2=O` [Compound 57], with 32 µg/mL (≈ 54.9 µM); and `CN(C)c1cc(CNC(=O)[C@@H]2CCCN2C)c(O)c2c1C[C@H]1C[C@H]3[C@@H](N(C)C)C(O)=C(C(N)=O)C(=O)[C@@]3(O)C(O)=C1C2=O` [Compound 71], with 16 µg/mL (≈ 26.8 µM).

On to `Cc1csc(NCc2cc(N(C)C)c3c(c2O)C(=O)C2=C(O)[C@]4(O)C(=O)C(C(N)=O)=C(O)C(N(C)C)[C@@H]4C[C@@H]2C3)n1` (stereo partly drawn) [Compound 62], for which the MIC is > 32 µg/mL.

On to `CC(=O)NCc1cc(N(C)C)c2c(c1O)C(=O)C1=C(O)[C@]3(O)C(=O)C(C(N)=O)=C(O)C(N(C)C)[C@@H]3C[C@@H]1C2` (stereo partly drawn) [Compound 3], for which the MIC was > 32 µg/mL. For the compound `CC(C)CNCc1ccc2c(c1O)C(=O)C1=C(O)[C@]3(O)C(=O)C(C(N)=O)=C(O)[C@@H](N(C)C)[C@@H]3[C@@H](O)[C@@H]1[C@H]2C` [Compound 34], the MIC worked out at 32 µg/mL (≈ 60.4 µM).

As for `CN(C)c1cc(CNC(=O)OCC(C)(C)C)c(O)c2c1C[C@H]1C[C@H]3[C@H](N(C)C)C(O)=C(C(N)=O)C(=O)[C@@]3(O)C(O)=C1C2=O` [Compound 8], the MIC was > 32 µg/mL.

With `CN(C)c1cc(CNC(=O)C2(N)CC2)c(O)c2c1C[C@H]1C[C@H]3[C@H](N(C)C)C(O)=C(C(N)=O)C(=O)[C@@]3(O)C(O)=C1C2=O` [Compound 59], the MIC stood at 16 µg/mL (≈ 28.1 µM).
